Ten compounds from ChEMBL document CHEMBL1143275, “Positive allosteric modulators of the metabotropic glutamate receptor subtype 4 (mGluR4). Part II: Challenges in hit-to-lead” (Bioorg Med Chem Lett, 2009) can be followed below.

Assay [1] has as its target T1, Metabotropic glutamate receptor 4 (Homo sapiens, UniProt Q14833). Kind of assay: Activation of human mGluR4 expressed in CHO cells coexpressing Gqi5 protein assessed as potentiation of glutamate-induced response relative to glutamate alone. The format is cell-based. The arrangement: concentration or dose not given beside the values.
In assay [2] the target is T1, Metabotropic glutamate receptor 4. Kind of assay: Activation of human mGluR4 expressed in CHO cells coexpressing Gqi5 protein assessed as potentiation of glutamate-induced response. Format: cell-based.
Assay [3] concerns the target Metabotropic glutamate receptor 5 (Homo sapiens) (UniProt P41594). Kind of assay: Antagonist activity at mGluR5 assessed as effect on glutamate-induced response. The format is functional.
The target in assay [4] is Metabotropic glutamate receptor 7 (Homo sapiens) (UniProt Q14831). Kind of assay: Antagonist activity at mGluR7 assessed as effect on glutamate-induced response. The format is functional.
The target in assay [5] is Metabotropic glutamate receptor 2 (Homo sapiens) (UniProt Q14416). The assay is described as follows: Antagonist activity at mGluR2 assessed as effect on glutamate-induced response. The format is functional.
Assay [6] concerns the target T1, Metabotropic glutamate receptor 4. The assay is described as follows: Activation of human mGluR4 expressed in CHO cells coexpressing Gqi5 protein assessed as fold shifting of glutamate-induced response at 30 uM. The format is cell-based.
Assay [7] addresses Metabotropic glutamate receptor 1 (Homo sapiens) (UniProt Q13255). The assay is described as follows: Antagonist activity at mGluR1 assessed as effect on glutamate-induced response. The format is functional. Further details: scale not given: the % may be the effect or the level left.
The target of assay [8] is Metabotropic glutamate receptor 8 (Homo sapiens) (UniProt O00222). The assay is described as follows: Antagonist activity at mGluR8 assessed as effect on glutamate-induced response. The format is functional.
The target of assay [9] is T1, Metabotropic glutamate receptor 4. Kind of assay: Activation of human mGluR4 expressed in CHO cells coexpressing Gqi5 protein in absence of glutamate. Format: cell-based.

Structures are written as SMILES. Active and inactive are the calls of the source. The rule behind the calls is not given here.

T1 sequence (Q14833 whole entry): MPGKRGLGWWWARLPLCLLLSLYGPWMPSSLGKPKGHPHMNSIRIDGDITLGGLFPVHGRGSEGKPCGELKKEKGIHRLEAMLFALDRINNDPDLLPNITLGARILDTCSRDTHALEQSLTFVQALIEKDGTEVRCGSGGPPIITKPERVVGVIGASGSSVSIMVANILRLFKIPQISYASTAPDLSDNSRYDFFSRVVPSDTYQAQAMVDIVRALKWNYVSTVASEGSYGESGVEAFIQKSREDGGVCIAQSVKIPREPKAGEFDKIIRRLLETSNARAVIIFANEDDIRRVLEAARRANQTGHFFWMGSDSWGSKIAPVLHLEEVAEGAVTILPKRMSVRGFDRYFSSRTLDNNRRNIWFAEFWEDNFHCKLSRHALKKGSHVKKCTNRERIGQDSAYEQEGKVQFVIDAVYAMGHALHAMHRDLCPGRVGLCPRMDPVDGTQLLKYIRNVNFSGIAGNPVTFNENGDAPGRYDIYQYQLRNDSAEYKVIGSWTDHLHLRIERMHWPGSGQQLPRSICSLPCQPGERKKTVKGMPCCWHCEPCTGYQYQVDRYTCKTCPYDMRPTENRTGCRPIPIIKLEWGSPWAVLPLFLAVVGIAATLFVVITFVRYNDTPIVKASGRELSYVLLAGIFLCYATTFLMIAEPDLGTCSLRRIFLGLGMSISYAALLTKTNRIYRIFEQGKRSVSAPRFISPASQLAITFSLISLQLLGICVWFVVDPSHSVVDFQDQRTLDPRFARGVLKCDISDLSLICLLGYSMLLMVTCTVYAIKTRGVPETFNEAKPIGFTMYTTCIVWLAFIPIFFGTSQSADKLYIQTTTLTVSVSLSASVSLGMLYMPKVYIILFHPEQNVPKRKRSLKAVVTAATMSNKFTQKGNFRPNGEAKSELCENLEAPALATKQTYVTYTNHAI
Chain of Metabotropic glutamate receptor 1 (Homo sapiens) (Q13255 19-1194 limits assumed): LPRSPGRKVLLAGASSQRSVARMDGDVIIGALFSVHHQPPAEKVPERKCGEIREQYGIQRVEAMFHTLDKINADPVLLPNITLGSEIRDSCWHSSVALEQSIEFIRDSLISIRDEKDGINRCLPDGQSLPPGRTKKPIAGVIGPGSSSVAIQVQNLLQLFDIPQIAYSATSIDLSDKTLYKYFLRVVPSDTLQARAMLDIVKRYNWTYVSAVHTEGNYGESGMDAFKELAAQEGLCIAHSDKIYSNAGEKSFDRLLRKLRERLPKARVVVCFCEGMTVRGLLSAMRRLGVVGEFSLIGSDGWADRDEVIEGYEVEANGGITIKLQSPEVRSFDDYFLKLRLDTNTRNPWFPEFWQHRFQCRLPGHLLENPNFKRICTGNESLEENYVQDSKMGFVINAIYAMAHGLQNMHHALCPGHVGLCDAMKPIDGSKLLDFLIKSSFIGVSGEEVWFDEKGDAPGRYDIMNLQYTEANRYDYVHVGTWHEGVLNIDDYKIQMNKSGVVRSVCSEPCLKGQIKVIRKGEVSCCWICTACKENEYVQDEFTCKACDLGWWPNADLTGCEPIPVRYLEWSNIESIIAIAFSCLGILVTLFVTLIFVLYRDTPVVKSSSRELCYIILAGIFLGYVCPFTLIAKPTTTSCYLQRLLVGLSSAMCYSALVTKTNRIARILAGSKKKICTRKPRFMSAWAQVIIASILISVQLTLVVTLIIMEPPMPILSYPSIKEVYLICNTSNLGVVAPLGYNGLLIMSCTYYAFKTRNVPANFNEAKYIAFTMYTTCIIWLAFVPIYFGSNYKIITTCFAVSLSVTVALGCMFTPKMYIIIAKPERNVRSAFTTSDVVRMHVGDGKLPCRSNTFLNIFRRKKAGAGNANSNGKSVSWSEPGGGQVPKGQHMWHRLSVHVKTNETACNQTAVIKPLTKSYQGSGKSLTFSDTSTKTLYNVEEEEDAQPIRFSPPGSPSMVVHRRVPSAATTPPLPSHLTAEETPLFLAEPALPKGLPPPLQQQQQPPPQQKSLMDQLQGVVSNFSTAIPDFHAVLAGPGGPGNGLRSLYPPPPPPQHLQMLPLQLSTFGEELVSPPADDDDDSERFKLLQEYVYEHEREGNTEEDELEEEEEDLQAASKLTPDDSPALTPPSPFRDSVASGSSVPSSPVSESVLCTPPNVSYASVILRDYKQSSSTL
Chain of Metabotropic glutamate receptor 5 (Homo sapiens) (P41594 21-1212 limits assumed): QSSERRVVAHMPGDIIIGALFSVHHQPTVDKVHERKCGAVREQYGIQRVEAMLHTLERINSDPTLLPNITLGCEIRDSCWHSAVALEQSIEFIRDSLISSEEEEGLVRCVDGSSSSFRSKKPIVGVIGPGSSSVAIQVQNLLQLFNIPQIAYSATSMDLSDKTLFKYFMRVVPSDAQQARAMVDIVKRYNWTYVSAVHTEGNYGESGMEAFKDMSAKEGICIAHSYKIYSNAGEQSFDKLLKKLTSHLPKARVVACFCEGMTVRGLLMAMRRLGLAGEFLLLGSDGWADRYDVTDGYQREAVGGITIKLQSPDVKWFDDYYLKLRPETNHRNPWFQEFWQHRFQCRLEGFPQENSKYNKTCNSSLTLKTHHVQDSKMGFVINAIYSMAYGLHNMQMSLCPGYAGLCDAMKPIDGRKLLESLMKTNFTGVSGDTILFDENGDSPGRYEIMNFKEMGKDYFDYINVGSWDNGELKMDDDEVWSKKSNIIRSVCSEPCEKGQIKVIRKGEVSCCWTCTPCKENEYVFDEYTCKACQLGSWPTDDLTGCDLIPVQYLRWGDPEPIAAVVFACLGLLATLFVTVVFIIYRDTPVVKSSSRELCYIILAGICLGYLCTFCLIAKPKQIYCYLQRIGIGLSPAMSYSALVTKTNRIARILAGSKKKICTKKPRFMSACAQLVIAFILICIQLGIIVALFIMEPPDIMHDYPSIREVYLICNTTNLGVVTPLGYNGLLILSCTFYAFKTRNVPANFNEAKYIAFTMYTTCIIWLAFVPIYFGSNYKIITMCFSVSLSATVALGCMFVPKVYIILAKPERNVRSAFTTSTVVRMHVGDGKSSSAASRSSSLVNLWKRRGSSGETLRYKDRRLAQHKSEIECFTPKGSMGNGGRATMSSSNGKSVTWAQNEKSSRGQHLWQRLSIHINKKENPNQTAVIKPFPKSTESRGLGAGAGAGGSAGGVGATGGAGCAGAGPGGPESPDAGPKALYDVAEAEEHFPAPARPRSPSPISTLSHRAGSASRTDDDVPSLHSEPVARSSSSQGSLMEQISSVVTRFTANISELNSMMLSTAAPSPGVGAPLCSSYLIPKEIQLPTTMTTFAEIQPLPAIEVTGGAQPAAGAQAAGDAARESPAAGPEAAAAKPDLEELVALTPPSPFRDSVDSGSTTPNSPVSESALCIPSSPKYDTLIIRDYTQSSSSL
Chain of Metabotropic glutamate receptor 7 (Homo sapiens) (Q14831 whole entry): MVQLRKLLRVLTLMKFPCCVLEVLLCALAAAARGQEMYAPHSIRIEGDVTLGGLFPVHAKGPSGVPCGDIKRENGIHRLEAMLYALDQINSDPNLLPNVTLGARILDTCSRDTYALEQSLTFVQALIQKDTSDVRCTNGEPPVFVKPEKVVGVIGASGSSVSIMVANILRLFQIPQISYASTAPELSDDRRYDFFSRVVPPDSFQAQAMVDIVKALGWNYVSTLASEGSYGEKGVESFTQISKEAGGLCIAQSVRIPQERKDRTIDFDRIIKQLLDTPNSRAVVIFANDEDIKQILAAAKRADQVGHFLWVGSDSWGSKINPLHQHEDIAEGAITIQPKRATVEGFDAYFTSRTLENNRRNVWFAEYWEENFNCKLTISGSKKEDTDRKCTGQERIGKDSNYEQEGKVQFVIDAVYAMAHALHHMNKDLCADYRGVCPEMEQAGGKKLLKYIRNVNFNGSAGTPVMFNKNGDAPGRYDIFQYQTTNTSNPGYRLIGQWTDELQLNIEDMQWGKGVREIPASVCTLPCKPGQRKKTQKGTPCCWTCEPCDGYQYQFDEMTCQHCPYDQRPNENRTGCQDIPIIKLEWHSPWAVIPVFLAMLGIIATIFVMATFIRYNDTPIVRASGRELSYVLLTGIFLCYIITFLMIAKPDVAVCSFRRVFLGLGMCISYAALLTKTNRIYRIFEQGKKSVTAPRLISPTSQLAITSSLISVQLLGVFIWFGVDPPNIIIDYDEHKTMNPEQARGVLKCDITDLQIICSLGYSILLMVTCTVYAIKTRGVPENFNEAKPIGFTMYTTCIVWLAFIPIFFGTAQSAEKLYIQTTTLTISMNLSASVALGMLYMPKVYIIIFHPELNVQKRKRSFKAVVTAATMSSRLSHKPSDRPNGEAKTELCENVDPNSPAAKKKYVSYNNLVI
Chain of Metabotropic glutamate receptor 8 (Homo sapiens) (O00222 whole entry): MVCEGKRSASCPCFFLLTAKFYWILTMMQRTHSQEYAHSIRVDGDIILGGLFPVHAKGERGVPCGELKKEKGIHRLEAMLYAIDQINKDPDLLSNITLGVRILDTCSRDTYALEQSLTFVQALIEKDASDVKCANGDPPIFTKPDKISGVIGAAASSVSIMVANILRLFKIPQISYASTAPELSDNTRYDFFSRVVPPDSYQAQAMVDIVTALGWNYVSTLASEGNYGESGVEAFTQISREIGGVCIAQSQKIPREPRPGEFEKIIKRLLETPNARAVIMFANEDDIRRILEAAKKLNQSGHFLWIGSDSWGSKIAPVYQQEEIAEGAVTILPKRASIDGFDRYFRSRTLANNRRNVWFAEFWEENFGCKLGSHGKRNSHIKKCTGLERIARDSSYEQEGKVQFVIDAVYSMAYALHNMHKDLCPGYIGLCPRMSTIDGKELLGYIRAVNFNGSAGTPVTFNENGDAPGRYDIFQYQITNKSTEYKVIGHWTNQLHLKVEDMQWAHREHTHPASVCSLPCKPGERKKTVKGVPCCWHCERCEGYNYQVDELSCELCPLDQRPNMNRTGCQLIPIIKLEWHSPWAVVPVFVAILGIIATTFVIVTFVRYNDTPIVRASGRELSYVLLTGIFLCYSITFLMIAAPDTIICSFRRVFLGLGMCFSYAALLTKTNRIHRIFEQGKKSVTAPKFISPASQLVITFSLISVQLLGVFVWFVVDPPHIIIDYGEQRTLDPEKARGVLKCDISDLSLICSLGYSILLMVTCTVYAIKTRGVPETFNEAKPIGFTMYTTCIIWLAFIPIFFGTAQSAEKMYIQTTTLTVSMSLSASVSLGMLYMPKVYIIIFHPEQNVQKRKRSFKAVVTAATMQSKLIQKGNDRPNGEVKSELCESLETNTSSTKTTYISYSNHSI

On to `COC(=O)c1ccc(N2C(=O)c3ccccc3NC2C(C)c2ccccc2)cc1` (stereo not given), for which the Activity in [1] was found to be 69%. The EC50 (in general, the midpoint of the concentration-response curve) in assay [2] is over 10 µM.
For `Cc1nc2ccccc2nc1N/N=C/c1ccc(O)cc1`, the result in assay [3], in assay [4], in [5], in assay [7], in assay [8] and in [9] was inactive. Besides, the Activity in assay [1] was determined as 144%. Also, the EC50 in [2] is 1.7 µM. Besides, the fold change (FC) in [6] worked out at 36.
Consider `Cc1nc2ccccc2nc1N/N=C/c1ccccc1`, for which the Activity in assay [1] was found to be 129%. The EC50 in [2] was found to be 4.4 µM.
The corresponding values for `Cc1ccc(N2C(=O)c3ccccc3NC2C(C)c2ccccc2)cc1` (stereo not given) are 129% and 3 µM.
The corresponding values for `Cc1nc2ccccc2nc1N/N=C/c1cccc(O)c1` are 136% and 2.4 µM.
For the compound `Cc1nc2ccccc2nc1N/N=C/c1ccc(F)cc1`, in assay [1], the Activity stood at 87%. Further, in assay [2], the EC50 is over 5 µM.
For the compound `Cc1nc2ccccc2nc1N/N=C/c1ccccc1O`, the Activity in assay [1] turned out to be 57%. Besides, the half-maximal effective concentration (EC50) in [2] was 4.1 µM.
Turning to `COc1ccccc1/C=N/Nc1nc2ccccc2nc1C`, the result in assay [2] was inactive.
`CC(c1ccccc1)C1Nc2ccccc2C(=O)N1c1cccc(F)c1` (stereo not given): the Activity in [1] was 87%. For the same compound, the EC50 in assay [2] is over 10 µM.
On to `O=C(Nc1ccccc1)[C@]12C[C@H]1/C(=N\O)c1ccccc1O2`, for which the Activity in [7] is 30%.
